Measurements as given in PMC6627850, “Identification of Plasmodium falciparum Mitochondrial Malate: Quinone Oxidoreductase Inhibitors from the Pathogen Box” (Genes, 2019).
“And” between values parts separate entries of the source, which are not always exact repeats. Identical values can stand only once. Like-named read-outs stand apart in the source and are kept apart here.

What was measured:
recombinant PfMQO = recombinant PfMQO (Plasmodium falciparum, UniProt C6KT09); test: biochemical; conditions: for inhibition at 10 µM: read-out: Inhibition (%) against recombinant PfMQO; for IC50: serial dilution 10 to 0.0003 μM, quadruplicate, ± standard deviation
Chain of recombinant PfMQO (C6KT09 entry or part of it): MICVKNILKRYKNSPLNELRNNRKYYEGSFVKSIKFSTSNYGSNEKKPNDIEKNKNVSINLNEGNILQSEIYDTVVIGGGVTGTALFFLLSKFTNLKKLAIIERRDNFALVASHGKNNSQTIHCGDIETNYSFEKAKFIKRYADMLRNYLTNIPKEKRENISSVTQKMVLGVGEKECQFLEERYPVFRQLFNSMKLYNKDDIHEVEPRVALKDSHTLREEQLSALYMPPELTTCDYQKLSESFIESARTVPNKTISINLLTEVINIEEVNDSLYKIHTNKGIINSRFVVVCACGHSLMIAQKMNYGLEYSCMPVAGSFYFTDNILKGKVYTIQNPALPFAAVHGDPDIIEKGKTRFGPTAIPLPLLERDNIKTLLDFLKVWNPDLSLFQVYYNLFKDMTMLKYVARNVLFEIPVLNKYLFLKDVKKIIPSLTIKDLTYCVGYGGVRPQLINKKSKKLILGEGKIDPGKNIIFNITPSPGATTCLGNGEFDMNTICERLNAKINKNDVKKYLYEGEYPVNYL

P. falciparum 3D7 strain = test: Plasmodium falciparum growth inhibition assay (diaphorase-coupled LDH assay, 72 hours); format: cell-based; conditions: for Growth inhibition of parasite cells (result in words): P. falciparum 3D7, LDH assay; for IC50: Plasmodium falciparum, read-out: IC50 growth of P. falciparum 3D7 strain in culture (ABS)
Experimental: Human RBCs were received from Japanese Red Cross Society. The experiments were performed under the guidelines of the ethical committee in The University of Tokyo (permission no. 10050) and Nagasaki University (permission no. 19). Parasite culture was synchronized with 5% (w/v) D-sorbitol as previously described. Ring stage parasites (100 μL/well) were placed in a 96-well plate at 0.3% parasitemia. […] As a control, wells containing culture medium and RBCs alone were prepared. […] The absorbance of each well was measured at 655 nm using SpectraMax Paradigm® Multi-Mode microplate reader (Molecular Devices, San Jose, CA, USA).

Cryptococcus neoformans = conditions: recently reported; cited from earlier work
HepG2 = test system: HepG2; parameters: method as in earlier work; conditions: ref https://www.mmv.org/mmv-open/pathogen-box/about-pathogen-box#composition; cited from earlier work
ABS parasites = test system: ABS parasites; parameters: method as in PMID 28674055; conditions: read-out: IC50 against the ABS parasites, previous study; cited from earlier work
Candida albicans = conditions: recently reported; cited from earlier work
[1] = test system: stage IV gametocyte cells; parameters: method as in PMID 28674055; conditions: cited from earlier work
[2] = 10 μM compound, average of 4 independent experiments
[3] = read-out: IC50 against recombinant PfMQO
[4] = 3D7, LDH assay, 72 hours incubation, average of three independent experiments ± SD

SMILES	inhibition at 10 µM (recombinant PfMQO; [2])	IC50 (recombinant PfMQO; [3])	Growth inhibition of parasite cells (result in words) (P. falciparum 3D7 strain)	inhibition at 10 µM (recombinant PfMQO)	IC50 (P. falciparum 3D7 strain; [4])	other results
O=C(Nc1nnc(S)s1)c1cc(Br)ccc1Cl [MMV676492]	98.5%	< 5 µM and 0.343 µM	failed to inhibit the growth			
COc1ccc(C2=NN(C3CCCCCC3)C(=O)C3CC=CCC23)cc1OCCCCOc1ccc(-c2nn[nH]n2)cc1 (stereo not drawn) [MMV690027]				98.2%		IC50 (P. falciparum 3D7 strain; 3D7, 72 h): 16.2 µM
N=C(N)Nc1ccc(-c2ccc(-c3ccc(NC(=N)N)c(Cl)c3)o2)cc1Cl [MMV688271]	80.5%	< 5 µM and 1.15 µM			1.03 µM	Antifungal effect against Cryptococcus neoformans (Cryptococcus neoformans): antifungal effect; HepG2 cytotoxicity CC20 (HepG2): 13.5 µM; IC50 (ABS parasites): 1.21 µM; Antifungal effect against Candida albicans (Candida albicans): antifungal effect
COc1ccc(C2=NN(C3CCCCCC3)C(=O)C2(C)C)cc1OCCCCOc1ccc(-c2nnn[nH]2)cc1 [MMV690028]				86.7%	6.05 µM	IC50 (recombinant PfMQO; IC50 against recombinant PfMQO): < 5 µM and 1.1 µM
N=C(N)Nc1ccc(-c2ccc(-c3ccc(NC(=N)N)cc3Cl)o2)c(Cl)c1 [MMV688179]	76%	< 5 µM and 3.96 µM			0.46 µM	HepG2 cytotoxicity CC20 (HepG2): 6.8 µM; Activity against the stage IV gametocyte cells [1]: active; IC50 (ABS parasites): 0.59 µM
Cc1cc(C)cc(COc2ccc3c(C)c(CCC(=O)O)c(=O)oc3c2C)c1 [MMV676476]		< 5 µM and 3.57 µM	failed to inhibit the growth	63.2%		
O=C(NCCc1c[nH]c2ccccc12)c1cc2ccccc2oc1=O [MMV676539]		< 5 µM and 4.06 µM	failed to inhibit the growth	65.6%		
